Reference: EP4389156A1, “RA[…] LIGAND COMPOUNDS AND PRECURSORS THEREOF” (Technische Universität München, priority 2022, dated 2024)
Several values for one entry are separate records, joined by “and”; a condition that tells them apart may be missing. Identical values can stand only once.

Columns and labels:
[1] = Lipophilicity (logD7.4), shake-flask method; assay type: physicochemical; details: n-octanol/PBS (pH 7.4), n = 8, mean ± SD
Procedure: The lipophilicity of ^99mTc-labeled PSMA ligands, expressed as distribution coefficient (logD7.4), was determined using the shake-flask method. A solution of approximately 1 MBq of radioligand in 1 mL of a 1:1 mixture of PBS (pH = 7.4) and n-octanol (n = 8) was vortexed vigorously for 3 min. After centrifugation at 9000 rpm for 5 min aliquots of both phases (200 µL n-octanol, 50 µL PBS) were collected and the activity was quantified in a γ-counter. logD7.4 values were calculated as decadic logarithm of the activity concentration ratio between the n-octanol phase and the aqueous phase. Data are given as mean ± standard deviation (SD). Binding to human plasma was determined by incubation of radioligands in human plasma (2 nM concentration, 37 °C for 30 min) and subsequent ultrafiltration (250 µL aliquots, 3200 rpm, 40 min) in Centrifree® ultrafiltration devices (Merck Millipore, Cork, Ireland). The fraction bound to human plasma proteins was calculated as the ratio of unfiltered activity and the total activity in the ultrafiltration device. Measurements were performed in three independent experiments, each with two replicates (n = 6, data are given as mean ± SD). All values were corrected for non-specific binding (control experiments in PBS).

[2] = biological target: T1, human serum albumin (HSA) (Homo sapiens, UniProt P02768); experiment: HSA binding by high performance affinity chromatography (HPAC); assay type: in vitro ADME; details: uncomplexed compounds, n = 1
T1 construct: purchased Daicel, Tokyo, Japan H13H-2433
T1 sequence (P02768 25-609): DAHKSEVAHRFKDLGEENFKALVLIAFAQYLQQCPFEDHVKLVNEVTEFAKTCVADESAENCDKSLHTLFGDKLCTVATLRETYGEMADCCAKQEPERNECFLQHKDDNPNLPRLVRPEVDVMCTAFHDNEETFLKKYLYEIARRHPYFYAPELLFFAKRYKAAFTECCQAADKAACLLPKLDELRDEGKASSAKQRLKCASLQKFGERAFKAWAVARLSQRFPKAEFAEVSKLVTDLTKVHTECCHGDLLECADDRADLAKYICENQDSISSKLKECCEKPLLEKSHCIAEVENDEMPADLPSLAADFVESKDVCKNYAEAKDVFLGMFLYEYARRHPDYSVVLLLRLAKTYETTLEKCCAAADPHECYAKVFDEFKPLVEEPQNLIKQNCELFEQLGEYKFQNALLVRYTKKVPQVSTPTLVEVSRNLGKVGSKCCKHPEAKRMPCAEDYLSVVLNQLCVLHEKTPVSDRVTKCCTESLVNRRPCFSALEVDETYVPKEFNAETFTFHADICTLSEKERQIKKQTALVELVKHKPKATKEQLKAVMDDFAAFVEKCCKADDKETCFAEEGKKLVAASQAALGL
Procedure: HSA binding of the uncomplexed PSMA ligands was determined according to a previously published procedure via HPLC (Valko, K.; Nunhuck, S.; Bevan, C.; Abraham, M. H.; Reynolds, D. P., Fast gradient HPLC method to determine compounds binding to human serum albumin. Relationships with octanol/water and immobilized artificial membrane lipophilicity. J Pharm Sci. 2003, 92, 2236-2248). A Chiralpak HSA column (50 × 3 mm, 5 µm, H13H-2433, Daicel, Tokyo, Japan) was used at a constant flow rate of 0.5 mL/min at rt. Mobile phase A was a freshly prepared 50 mM aqueous solution of NH4OAc (pH 6.9) and mobile phase B was isopropanol (HPLC grade, VWR). The applied gradient for all experiments was 100% A (0 to 3 min), followed by 80% A (3 to 40 min). Prior to the experiment, the column was calibrated using nine reference substances with a HSA binding, known from literature, in the range of 13 to 99% (Valko, K.; Nunhuck, S.; Bevan, C.; Abraham, M. H.; Reynolds, D. P., J Pharm Sci. 2003, 92, 2236-2248; Yamazaki, K.; Kanaoka, M., Computational prediction of the plasma protein-binding percent of diverse pharmaceutical compounds. J Pharm Sci. 2004, 93, 1480-1494). All substances, including the examined PSMA ligands, were dissolved in a 1:1 mixture (v/v) of isopropanol and a 50 mM aqueous solution of NH4OAc (pH 6.9) with a final concentration of 0.5 mg/mL. Non-linear regression was established with the OriginPro 2016G software (Northampton, United States).

PSMA = biological target: T2, PSMA (Homo sapiens, UniProt Q04609); experiment: Competitive binding study, inverse IC50 (99mTc-radioligand versus increasing IBA-KuE); details: inverse IC50: IBA-KuE competes against 99mTc-radioligand (0.2 nM/well); higher values = higher affinity; 1 h, 4°C, n = 3, mean ± SD; read-out: IC50, inv.
T2 construct: endogenous in cells; printed for the internalization assay of the same paragraph
T2 sequence (Q04609 whole entry): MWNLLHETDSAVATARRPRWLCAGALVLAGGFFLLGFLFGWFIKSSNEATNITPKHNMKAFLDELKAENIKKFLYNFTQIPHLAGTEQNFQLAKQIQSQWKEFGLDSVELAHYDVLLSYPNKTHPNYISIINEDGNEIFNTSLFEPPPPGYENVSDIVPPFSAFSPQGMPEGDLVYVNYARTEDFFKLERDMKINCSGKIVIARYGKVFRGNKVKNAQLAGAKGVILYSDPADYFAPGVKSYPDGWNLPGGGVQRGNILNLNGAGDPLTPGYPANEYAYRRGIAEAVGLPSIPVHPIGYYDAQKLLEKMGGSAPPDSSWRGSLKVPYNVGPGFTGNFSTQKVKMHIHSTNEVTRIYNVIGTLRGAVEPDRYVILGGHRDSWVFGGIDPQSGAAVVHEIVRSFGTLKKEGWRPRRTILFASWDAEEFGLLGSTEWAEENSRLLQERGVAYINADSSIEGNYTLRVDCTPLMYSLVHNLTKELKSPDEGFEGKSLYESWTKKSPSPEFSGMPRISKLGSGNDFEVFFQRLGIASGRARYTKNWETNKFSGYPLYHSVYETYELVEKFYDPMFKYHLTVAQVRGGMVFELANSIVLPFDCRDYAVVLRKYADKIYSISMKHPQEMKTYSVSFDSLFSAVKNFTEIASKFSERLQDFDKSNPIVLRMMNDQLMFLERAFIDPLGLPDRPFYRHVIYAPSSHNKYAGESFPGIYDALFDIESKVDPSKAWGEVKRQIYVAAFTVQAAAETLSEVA
Procedure: (§1) Competitive binding studies were carried out in analogy to a previously reported procedure. As a modification the non-radiolabeled standard competitor (((S)-1-carboxy-5-(4-(iodo)benzamido)pentyl)carbamoyl)-L-glutamic acid (IBA-KuE) was applied in increasing concentrations (10^-5 - 10^-11 M/well, n = 3 each) whereas the novel PSMA-binding compounds of interest were applied as ^99mTc-labeled radioligands (0.2 nM/well). In this inversed experimental approach, higher values correspond to higher affinities and are referred to as inverse IC50. Poly-L-lysine coated 24-well plates were used (n = 3). Data are given as mean ± SD. To determine the cellular uptake of the ^99mTc-labeled PSMA ligands into LNCaP cells by means of PSMA-mediated internalization at 1 h, a previously reported protocol was applied with assay concentrations of 1.0 nM and 0.2 nM for ^99mTc-labeled PSMA ligands and the reference compound [^125I]IBA-KuE, respectively. Data are corrected for non-specific binding and normalized to the specific internalization of the reference. Results are given as mean ± SD.

LNCaP cells = experiment: PSMA-mediated internalization into LNCaP cells; assay type: cell-based; details: 1 h, 37°C, n = 3, as percentage of reference [125I]IBA-KuE, mean ± SD
Procedure: as §1

[3] = test system: LNCaP tumor-bearing CB17-SCID mice; experiment: Biodistribution study in LNCaP tumor-bearing mice; assay type: in vivo; details: 6 h p.i.; for uptake in % iD/g adrenals / uptake in % iD/g blood / uptake in % iD/g bone / uptake in % iD/g heart / uptake in % iD/g intestine / uptake in % iD/g kidney / uptake in % iD/g liver / uptake in % iD/g lung / uptake in % iD/g muscle / uptake in % iD/g pancreas / uptake in % iD/g parotid gland / uptake in % iD/g spleen / uptake in % iD/g stomach / uptake in % iD/g submandibular gland / uptake in % iD/g tumor: male LNCaP tumor-bearing CB17-SCID mice, mean; for uptake in % iD/g adrenals / uptake in % iD/g blood / uptake in % iD/g bone / uptake in % iD/g heart / uptake in % iD/g intestine / uptake in % iD/g kidney / uptake in % iD/g liver / uptake in % iD/g lung / uptake in % iD/g muscle / uptake in % iD/g pancreas / uptake in % iD/g parotid gland / uptake in % iD/g spleen / uptake in % iD/g stomach / uptake in % iD/g submandibular gland / uptake in % iD/g tumor / tumor-to-background ratio adrenals / tumor-to-background ratio blood / tumor-to-background ratio bone / tumor-to-background ratio heart / tumor-to-background ratio intestine / tumor-to-background ratio kidney / tumor-to-background ratio liver / tumor-to-background ratio lung / tumor-to-background ratio muscle / tumor-to-background ratio pancreas / tumor-to-background ratio parotid gland / tumor-to-background ratio spleen / tumor-to-background ratio stomach / tumor-to-background ratio submandibular gland: n = 4-5; for tumor-to-background ratio adrenals / tumor-to-background ratio blood / tumor-to-background ratio bone / tumor-to-background ratio heart / tumor-to-background ratio intestine / tumor-to-background ratio kidney / tumor-to-background ratio liver / tumor-to-background ratio lung / tumor-to-background ratio muscle / tumor-to-background ratio pancreas / tumor-to-background ratio parotid gland / tumor-to-background ratio spleen / tumor-to-background ratio stomach / tumor-to-background ratio submandibular gland: mean of ratios of individual animals; for Blood activity levels increased, as compared to [^99mTc]Tc-N4-PSMA-12: relative to [^99mTc]Tc-N4-PSMA-12
Procedure: All animal experiments were conducted in accordance with general animal welfare regulations in Germany (German animal protection act, in the edition of the announcement, dated May 18th, 2006, as amended by Article 280 of June 19th 2020, approval no. ROB-55.2-1-2532.Vet_02-18-109 by the General Administration of Upper Bavaria) and the institutional guidelines for the care and use of animals. Male CB17-SCID mice were purchased from Charles River (Sulzfeld, Germany) and arrived at the in-house animal facility to acclimate at least 1 week before the start of the experiment. Tumor xenografts were established by subcutaneous inoculation of LNCaP cells (approx. 2 × 10^7 cells in 200 µL of a 1:1 mixture of Cultrex BME (R&D Systems, Minneapolis, United States) and DMEM/Ham's F-12) onto the right shoulder of 6-8 weeks old male CB17-SCID mice. The animals were used for experiments when tumors had grown to a size of 5-10 mm in diameter. Criteria for the exclusion of animals from the experiment were weight loss higher than 20%, tumor size above 1.5 cm^3, ulceration of the tumor, respiratory distress or change of behavior. […] Neither randomisation nor blinding was applied in the allocation of the experiments. Quarterly health monitoring was performed according to the FELASA recommendations.
Biodistribution Studies. The ^99mTc-labeled radioligands (2.7 ± 0.7 MBq, 82 ± 20 pmol) were injected into a lateral tail vein of LNCaP-tumor bearing mice (n = 4-5) under isoflurane anesthesia. Animals were sacrificed at 6 h post injection (p.i.) by carbon dioxide inhalation and blood withdrawal via cardiac puncture. Blood and tissues of interest were collected, weighed and the activity measured in a γ-counter. Radioligand uptake is given in percent of the injected dose per gram of tissue (% ID/g) and results are presented as mean ± SD.
In line with the above, the biodistribution study of [^99mTc]Tc-N4-PSMA-21 was carried out with n = 5 animals ("data set I"). […] Kidney uptake of mouse #3 (36.17 %ID/g) exceeded the value obtained from the other four animals (4.58 ± 1.44 %ID/g, mean ± SD) 7.9-fold or by more than 20 standard deviations. In addition, tumor uptake of mouse #3 (21.92 %ID/g) exceeded the value obtained from the other four animals (11.02 ± 2.22 %ID/g, mean ± SD) 2.0-fold or by more than 4 standard deviations Due to the uncertainty whether these huge deviations arise from an experimental error or might be related to strongly deviating metabolic processes e.g. abnormal kidney function in mouse #3, the study primarily presents and discusses the data set based on the other four animals (n = 4, "data set II"). A thorough evaluation and comparison was, however, also carried out including mouse #3.

[4] = single outlier animal (mouse #3), excluded from data set II

SMILES	logD7.4 [1]	HSA-binding (HPAC) (%) [2] [%]	inverse IC50 (PSMA) [nM]	internalization (% IBA-KuE) (LNCaP cells) [%]	uptake in % iD/g adrenals [3] [% ID/g]	uptake in % iD/g blood [3] [% ID/g]	uptake in % iD/g bone [3] [% ID/g]	uptake in % iD/g heart [3] [% ID/g]	uptake in % iD/g intestine [3] [% ID/g]	uptake in % iD/g kidney [3]	uptake in % iD/g liver [3] [% ID/g]	uptake in % iD/g lung [3] [% ID/g]	uptake in % iD/g muscle [3] [% ID/g]	uptake in % iD/g pancreas [3] [% ID/g]	uptake in % iD/g parotid gland [3] [% ID/g]	uptake in % iD/g spleen [3] [% ID/g]	uptake in % iD/g stomach [3] [% ID/g]	uptake in % iD/g submandibular gland [3] [% ID/g]	uptake in % iD/g tumor [3]	tumor-to-background ratio adrenals [3]	also measured
CC(C)(C)[Si](O)(c1ccc(C(=O)NC[C@@H](NC(=O)[C@@H](Cc2ccc(N)cc2)NC(=O)C(CNCCN)CNCCN)C(=O)N[C@H](CCCCNC(=O)CCC(=O)NCCC[C@@H](NC(=O)CC[C@H](NC(=O)N[C@@H](CCC(=O)O)C(=O)O)C(=O)O)C(=O)O)C(=O)O)cc1)C(C)(C)C.[O]=[99Tc+]=[O] [[^99mTc]Tc-N4-PSMA-21]	-3.13 ± 0.05	57.3	11.1 ± 1.42	180 ± 4	0.5759	0.1074	0.0828	0.0568	1.1034	4.58 ± 1.44 % ID/g and 4.6 ± 1.4 % ID/g and 4.5811 % ID/g	0.5752	0.1250	0.0153	0.0335	0.1105	1.3064	0.1458	0.3009	11.02 ± 2.22 % ID/g and 11.0155 % ID/g	19.85	tumor-to-background ratio blood [3]: 125.55; tumor-to-background ratio bone [3]: 207.38; tumor-to-background ratio heart [3]: 201.50; tumor-to-background ratio intestine [3]: 52.29; tumor-to-background ratio kidney [3]: 2.57; tumor-to-background ratio liver [3]: 23.75; tumor-to-background ratio lung [3]: 99.35; tumor-to-background ratio muscle [3]: 736.44; tumor-to-background ratio pancreas [3]: 350.74; tumor-to-background ratio parotid gland [3]: 101.59; tumor-to-background ratio spleen [3]: 10.32; tumor-to-background ratio stomach [3]: 114.49; tumor-to-background ratio submandibular gland [3]: 50.80; Blood activity levels increased, as compared to [^99mTc]Tc-N4-PSMA-12 [3]: 5.4 fold; Kidney uptake of mouse #3 [3, 4]: 36.17 %ID/g; tumor uptake of mouse #3 [3, 4]: 21.92 %ID/g
CC(C)(C)[Si](O)(c1ccc(C(=O)NC[C@@H](NC(=O)[C@@H](Cc2ccccc2)NC(=O)C(CNCCN)CNCCN)C(=O)N[C@H](CCCCNC(=O)CCC(=O)NCCC[C@@H](NC(=O)CC[C@H](NC(=O)N[C@@H](CCC(=O)O)C(=O)O)C(=O)O)C(=O)O)C(=O)O)cc1)C(C)(C)C.[O]=[99Tc+]=[O] [[^99mTc]Tc-N4-PSMA-13]	-2.78 ± 0.05	89.9	9.98 ± 0.99	164 ± 15	0.5170	0.0320	0.0862	0.0456	0.2661	6.6 ± 4.8 % ID/g and 6.5974 % ID/g	0.2618	0.1108	0.0127	0.0270	0.1056	0.6314	0.1348	0.3069	12.5347 % ID/g	24.50	tumor-to-background ratio blood [3]: 409.29; tumor-to-background ratio bone [3]: 142.94; tumor-to-background ratio heart [3]: 276.38; tumor-to-background ratio intestine [3]: 64.62; tumor-to-background ratio kidney [3]: 2.45; tumor-to-background ratio liver [3]: 50.17; tumor-to-background ratio lung [3]: 113.30; tumor-to-background ratio muscle [3]: 1013.12; tumor-to-background ratio pancreas [3]: 496.73; tumor-to-background ratio parotid gland [3]: 119.35; tumor-to-background ratio spleen [3]: 20.57; tumor-to-background ratio stomach [3]: 101.82; tumor-to-background ratio submandibular gland [3]: 41.60; Blood activity levels increased, as compared to [^99mTc]Tc-N4-PSMA-12 [3]: 1.6 fold
